The source of these data is article PMC5653977 (EMBO Molecular Medicine, 2017).

The test system of this assay is NRG1-ERBB4 signaling. Kind of assay: Nrg1-ERBB4-PIK3R1 split TEV co-culture compound screen of the NIH Clinical Collection. Format: cell-based, human. An excerpt:
For our HTS‐compatible split TEV assay approach, human full‐length ERBB4‐Cyt1 was fused to the NTEV fragment, a TEV protease cleavage site (tevS) and the artificial co‐transcriptional activator Gal4‐VP16 (ERBB4‐NTEV‐tevS‐GV); human PIK3R1 was fused to the CTEV fragment (PIK3R1‐CTEV) (Fig 1A). Upon ERBB4 activation, PIK3R1 is recruited to the receptor resulting in a reconstituted protease activity that cleaves off GV. In turn, released GV translocates to the nucleus and binds to upstream activating sequences (UAS) to activate the transcription of a firefly luciferase reporter gene (Fig 1A). A constitutively expressed Renilla luciferase driven under the control of the human thymidine kinase (TK) promoter was used as control to address off‐target effects related to toxicity.
For small molecule screening, the NIH‐NCC Clinical Collection library (sets NCC‐003 and NCC‐201) was used containing 727 small molecules that are FDA‐approved and have a history in clinical applications (www.nihclinicalcollection.com). A Hamilton Labstar robot connected to 37 and 4°C incubators for cell incubation and compound storage and application (Cytomat automated incubator, ThermoScientific) and to a luciferase reader (Berthold Technologies) was used to automatically perform the screening. […] Each batch was screened three times.
For one 96‐well plate, 4 × 10^6 PC12 cells were harvested and diluted in 5 ml assay medium (phenol red‐free DMEM (low glucose, Life Technologies), 10% FCS, 5% HS, no antibiotics). The split TEV assay plasmids (2 μg pcDNA3_ERBB4‐NTEV‐tevS‐GV‐2xHA, 2 μg pTag4C_PIK3R1‐CTEV‐2xHA, 2 μg p5xUAS_firefly luciferase, 2 μg pTK_Renilla luciferase, and 0.5 μg pECFP‐C1 for examining transfection efficiency) were diluted in 2.5 ml Opti‐MEM (Life Technologies) and vortexed. In parallel, 20 μl of the transfection reagent Lipofectamine 2000 was diluted in 2.5 ml Opti‐MEM and vortexed.
For plating of one 96‐well plate, 10 ml suspension, containing the 4 × 10^6 in solution‐transfected cells, was placed in the bubble paddle reservoir of the Hamilton Cellstar robot. 100 μl was seeded per 96‐well using the 96‐tip pipetting head. The homogeneity of the cell suspension was guaranteed over time by mild stirring using the paddling device inside the reservoir. For five plates each, 50 ml of additional cell suspension was used to allow for losses of inaccessible volume.
The cells were allowed to express the plasmids for 24 h before compounds were added. Proper expression and transfection efficiency were verified by ECFP expression on a clear control plate. The compounds were applied in a final concentration of 10 μM using DMSO as diluent. […] Thirty minutes later, 10,000 Nrg1‐expressing PC12 cells in 100 μl assay medium were seeded on top. 24 h after addition of the compounds, the cells were lysed using 40 μl Passive Lysis buffer (Promega) and subjected to a Dual Luciferase Assay (Promega) according to the manufacturer's instructions. The data were analyzed in R Bioconductor using the package cellHTS2 (http://www.bioconductor.org/packages/devel/bioc/html/cellHTS2.html), assessed using the z‐score, and visualized using the program Mondrian (http://stats.math.uni-augsburg.de/mondrian/).

Where [1] appears, read: compounds at 10 μM, 24 h, PC12 split TEV assay cells co-cultured with Nrg1-expressing PC12 cells, analysed with cellHTS2.
[2] abbreviates: NIH Clinical Collection NCC-003 raw data, compounds ranked by Z-score, 'flagged' given instead of a Z-score.
[3] abbreviates: compound screen of the NIH Clinical Collection, sheet raw data NCC-003, compounds ranked by Z-score.

Counter-ions that a name gives are not always drawn. Like-named read-outs stand apart in the source and are kept apart here.

For the compound `Nc1nc(O)c2ncn(COC(CO)CO)c2n1` [Ganciclovir, reference compound], the Z-SCORE under setting [1] is on record as -0.19.
Under setting [1], `CC(C)[N+]1(C)[C@@H]2CC[C@H]1C[C@@H](OC(=O)C(CO)c1ccccc1)C2.O.[Br-]` (some centres unmarked) [IPRATROPIUM BROMIDE MONOHYDRATE, reference compound] gave a Z-SCORE of 0.31.
`C=CC[C@@H]1/C=C(\C)C[C@H](C)C[C@H](OC)[C@H]2O[C@@](O)(C(=O)C(=O)N3CCCC[C@H]3C(=O)O[C@H](/C(C)=C/[C@@H]3CC[C@@H](O)[C@H](OC)C3)[C@H](C)[C@@H](O)CC1=O)[C@H](C)C[C@@H]2OC` [TACROLIMUS]: the Z-SCORE under setting [2] is recorded as -1.97.
For the compound `CN(C)[C@@H]1C(O)=C(C(N)=O)C(=O)[C@@]2(O)C(O)=C3C(=O)c4c(O)ccc(Cl)c4[C@@H](O)[C@H]3C[C@@H]12` [Demeclocycline, reference compound], under setting [1], the Z-SCORE is on record as 0.1.
`CCCN1C[C@H](CSC)C[C@@H]2c3cccc4[nH]cc(c34)C[C@H]21` [PERGOLIDE MESYLATE] registered a Z-SCORE under setting [3] of -0.4.
`C[C@@H]1O[C@@H](OC[C@H]2O[C@@H](Oc3c(-c4ccc(O)c(O)c4)oc4cc(O)cc(O)c4c3=O)[C@H](O)[C@@H](O)[C@@H]2O)[C@H](O)[C@H](O)[C@H]1O` [RUTIN] gave a Z-SCORE under setting [3] of 0.13.
On the same count and under the same terms, the same measure for `Cc1ccsc1C(=CCCN1CCC[C@@H](C(=O)O)C1)c1sccc1C` [TIAGABINE HCl]: -0.1.
`CCc1nc(N)nc(N)c1-c1ccc(Cl)cc1` [Pyrimethamine, reference compound] yielded a Z-SCORE under setting [1] of 0.29.
Under setting [1], `NC(=O)c1ncn([C@@H]2O[C@H](CO)[C@@H](O)[C@H]2O)n1` [Ribavirin, reference compound] gave a Z-SCORE of 0.53.
In turn, `CCCC1O[C@@H]2C[C@H]3[C@@H]4CCC5=CC(=O)C=C[C@]5(C)[C@H]4[C@@H](O)C[C@]3(C)[C@]2(C(=O)CO)O1` (some centres unmarked) [BUDESONIDE, reference compound] yielded a Z-SCORE under setting [1] of -0.46.
The same measure, in the same setting: the same measure for `COc1cc([C@@H]2c3cc4c(cc3[C@H](O)[C@H]3COC(=O)[C@H]23)OCO4)cc(OC)c1OC` [Podofilox, reference compound]: “flagged”.
Under setting [1], `CNCCC(Oc1ccc(C(F)(F)F)cc1)c1ccccc1` (centres unmarked) [Prozac, reference compound] gave a Z-SCORE of -1.46.
Under setting [1], `CC(C)NCC(O)COc1ccc(CC(N)=O)cc1` (centres unmarked) [ATENOLOL, reference compound] returned a Z-SCORE of 0.6.
In turn, `OC[C@H]1O[C@@H](Oc2cc(O)cc(/C=C/c3ccc(O)cc3)c2)[C@H](O)[C@@H](O)[C@@H]1O` [PICEID] had a Z-SCORE under setting [3] of 0.85.
Turning to `CC1(C)O[C@@H]2C[C@H]3[C@@H]4CCC5=CC(=O)C=C[C@]5(C)[C@@]4(F)[C@@H](O)C[C@]3(C)[C@]2(C(=O)CO)O1` [TRIAMCINOLONE ACETONIDE, reference compound], under setting [1], the Z-SCORE is recorded as -1.51.
Compound `CSc1nc2cc(Cl)c(Oc3cccc(Cl)c3Cl)cc2[nH]1` [TRICLABENDAZOLE] registered a Z-SCORE under setting [2] of -1.39.
In the case of `Nc1nnc(-c2cccc(Cl)c2Cl)c(N)n1` [LAMOTRIGINE], the Z-SCORE under setting [3] came out at 0.3.
For `OC(CCN1CCCC1)(c1ccccc1)C1CCCCC1` (centres unmarked) [Kemadrin, reference compound], the Z-SCORE under setting [1] is given as -0.51.
The compound `CC(=O)/N=c1/sc(S(N)(=O)=O)nn1C` [Methazolamide, reference compound] registered a Z-SCORE under setting [1] of 0.38.
`COc1ccccc1OCC(O)COC(N)=O` (centres unmarked) [Methocarbamol, reference compound] registered a Z-SCORE under setting [1] of 0.65.
Under setting [1], `Nc1ccc(S(=O)(=O)c2ccc(N)cc2)cc1` [Dapsone, reference compound] yielded a Z-SCORE of -0.6.
On to `CC[C@]1(O)C[C@@H]2CN(CCc3c([nH]c4ccccc34)[C@@](C(=O)OC)(c3cc4c(cc3OC)N(C)[C@H]3[C@@](O)(C(N)=O)[C@H](O)[C@]5(CC)C=CCN6CC[C@]43[C@@H]65)C2)C1` [VINDESINE SULFATE], for which the Z-SCORE result under setting [2] is listed as “flagged”.
In the case of `Nc1nc(N)c2nc(-c3ccccc3)c(N)nc2n1` [Triamterene, reference compound], the Z-SCORE under setting [1] came out at 0.78.
The compound `CN1CCC(=C2c3ccccc3C=Cc3ccccc32)CC1` [Cyproheptadine hydrochloride] returned a Z-SCORE under setting [3] of 0.2.
`O=C(c1ccccc1)c1ccc2n1CCC2C(=O)O` (centres unmarked) [Ketorolac tromethamine] came in with a Z-SCORE under setting [3] of -0.4.
`CC(=O)Nc1nnc(S(N)(=O)=O)s1` [Acetazolamide, reference compound]: the Z-SCORE under setting [1] is 0.2.
As to `Cc1ccccc1C(OCCN(C)C)c1ccccc1` (centres unmarked) [Disipal, reference compound], the Z-SCORE under setting [1] is reported as 0.42.
For `CCCCCCCCCOc1ccc2[nH]cc(CCN)c2c1` [5-Nonyloxytryptamine], the Z-SCORE result under setting [2] is “flagged”.
`CNC(=N)NCCC[C@H](N)C(=O)O` gave a Z-SCORE of -0.42.
As to `O=c1c2ccccc2[se]n1-c1ccccc1` [EBSELEN], under setting [3], the Z-SCORE is given as -0.25.
`O=C(O)CCNC(=O)c1ccc(/N=N/c2ccc(O)c(C(=O)O)c2)cc1` [BALSALAZIDE] had a Z-SCORE under setting [3] of 0.84.
Turning to `Cc1cnc(C(=O)NCCc2ccc(S(=O)(=O)NC(=O)NC3CCCCC3)cc2)cn1` [GLIPIZIDE, reference compound], the Z-SCORE under setting [1] is recorded as 0.73.
Take `Oc1ccc2c3c1O[C@H]1[C@@H](O)CC[C@@]4(O)[C@@H](C2)N(CC2CCC2)CC[C@]314` [Nalbuphine]: the Z-SCORE was -1.86.
Turning to `FC(F)(F)c1cccc(N2CCNCC2)c1` [TFMPP], under setting [3], the Z-SCORE was 1.34.
For the compound `COc1cc2nc(N3CCN(C(=O)C4COc5ccccc5O4)CC3)nc(N)c2cc1OC` (centres unmarked) [Doxazosin, reference compound], the Z-SCORE under setting [1] turned out to be 0.51.
On to `C[C@@](Cc1ccc(O)c(O)c1)(NN)C(=O)O` [CARBIDOPA, reference compound], for which the Z-SCORE under setting [1] was -1.58.
The compound `Cc1cccc(CCN2CCC(C(=O)c3ccc(NS(C)(=O)=O)cc3)CC2)n1.Cl.Cl` returned a Z-SCORE under setting [3] of -0.17.
The compound `C#C[C@]1(O)CC[C@H]2[C@@H]3CCc4cc(O)ccc4[C@H]3CC[C@@]21C` [ETHYNYLESTRADIOL] came in with a Z-SCORE under setting [3] of 0.75.
For `C=C1/C(=C\C=C2/CCC[C@]3(C)[C@@H]([C@H](C)/C=C/[C@@H](O)C4CC4)CC[C@@H]23)C[C@@H](O)C[C@@H]1O` [CALCIPOTRIOL], the Z-SCORE under setting [3] was -0.04.
`CC(C)NCC(O)c1cc(O)cc(O)c1` (centres unmarked) [Metaproterenol, reference compound] yielded a Z-SCORE under setting [1] of -0.11.
For `CO[C@H]1/C=C/O[C@@]2(C)Oc3c(C)c(O)c4c(O)c(c(/C=N/N5CCN(C)CC5)c(O)c4c3C2=O)NC(=O)/C(C)=C\C=C\[C@H](C)[C@H](O)[C@@H](C)[C@@H](O)[C@@H](C)[C@H](OC(C)=O)[C@@H]1C` [RIFAMPICIN, reference compound], the Z-SCORE under setting [1] is on record as -0.22.
In the case of `CC(=O)O[C@H]1C[C@@H]2CC[C@@H]3[C@H](CC[C@@]4(C)[C@H]3C[C@H]([N+]3(C)CCCCC3)[C@@H]4OC(C)=O)[C@@]2(C)C[C@@H]1[N+]1(C)CCCCC1` [Pancuronium], the Z-SCORE under setting [3] is on record as -0.32.
On the same count and under the same terms, for `CCC(C)(C)NC(=Nc1cccnc1)NC#N` the value was 0.49.
In turn, `c1ccc2[nH]c(-c3cscn3)nc2c1` [THIABENDAZOLE, reference compound] registered a Z-SCORE under setting [1] of -1.42.
As for `CN1CCN(c2c(F)cc3c(=O)c(C(=O)O)cn4c3c2SCC4)CC1.Cl` [RUFLOXACIN HCl], the Z-SCORE under setting [3] was 1.1.
For `NS(=O)(=O)c1cc(C2(O)NC(=O)c3ccccc32)ccc1Cl` (centres unmarked) [Chlorthalidone, reference compound], the Z-SCORE under setting [1] worked out at 0.87.
As for `CC[C@@]1(O)C(=O)OCc2c1cc1n(c2=O)Cc2cc3c(CN(C)C)c(O)ccc3nc2-1` [Topotecan HCl, reference compound], the Z-SCORE is recorded as 7.97 under setting [3] and 7.97 under setting [1].
As for `CC(C)C[C@H](NC(=O)[C@@H](O)[C@H](N)Cc1ccccc1)C(=O)O` [BESTATIN], the Z-SCORE under setting [2] is given as -1.11.
Regarding `CC(C)(C)NCC(O)COc1cccc2c1CC(O)C(O)C2` (centres unmarked) [NADOLOL, reference compound], the Z-SCORE under setting [1] worked out at 0.1.
